The assay deals with CD2F1 mice, L1210 leukemia ip, survival T/C. As to the kind of experiment: NCI In Vivo Anticancer Drug Screen. Data for tumor model L1210 Leukemia (intraperitoneal) in CD2F1 (CDF1) mice. Particulars: higher = longer survival. In outline:
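Ratio T/C, where T is the treated-group value and C the vehicle-dosed control value, from mice implanted with a transplantable tumor.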

Where [1] appears, read: endpoint: mean survival time, dose: 100.0 mg/kg/injection, schedule: Q01DX009 (ip), vehicle: saline with Tween-80.
Where [2] appears, read: endpoint: mean survival time, dose: 100.0 mg/kg/injection, schedule: Q04DX003 (ip), vehicle: saline with Tween-80.
[3] abbreviates: endpoint: mean survival time, dose: 200.0 mg/kg/injection, schedule: Q01DX009 (ip), vehicle: saline with Tween-80.
The mark [4] stands for this setting: endpoint: mean survival time, dose: 200.0 mg/kg/injection, schedule: Q04DX003 (ip), vehicle: saline with Tween-80.
Where [5] appears, read: endpoint: mean survival time, dose: 400.0 mg/kg/injection, schedule: Q01DX009 (ip), vehicle: saline with Tween-80.
The mark [6] stands for this setting: endpoint: mean survival time, dose: 400.0 mg/kg/injection, schedule: Q04DX003 (ip), vehicle: saline with Tween-80.
The mark [7] stands for this setting: endpoint: mean survival time, dose: 50.0 mg/kg/injection, schedule: Q01DX009 (ip), vehicle: acetone.
[8] abbreviates: endpoint: mean survival time, dose: 100.0 mg/kg/injection, schedule: Q04DX002 (ip), vehicle: saline with Tween-80.
[9] abbreviates: endpoint: mean survival time, dose: 200.0 mg/kg/injection, schedule: Q04DX002 (ip), vehicle: saline with Tween-80.

Structures are written as SMILES. Where “and” joins values, the source holds several entries; their conditions need not be identical. Equal entries are not always repeated. Toxic doses and inconclusive results are not listed.

Turning to `CCCN(CCC)C(=O)[S-].CCCN(CCC)C(=O)[S-].[Ni+2]`, the T/C (endpoint: mean survival time, dose: 6.25 mg/kg/injection, schedule: Q01DX009 (ip), vehicle: saline with Tween-80) is 95 % of control; the T/C (endpoint: mean survival time, dose: 6.25 mg/kg/injection, schedule: Q04DX003 (ip), vehicle: saline sonified) is 99 % of control; the T/C (endpoint: mean survival time, dose: 12.5 mg/kg/injection, schedule: Q01DX009 (ip), vehicle: saline with Tween-80) was 106 % of control; the T/C (endpoint: mean survival time, dose: 12.5 mg/kg/injection, schedule: Q04DX003 (ip), vehicle: saline sonified) is 97 % of control; the T/C (endpoint: mean survival time, dose: 25.0 mg/kg/injection, schedule: Q01DX009 (ip), vehicle: saline with Tween-80) is 106 % of control; the T/C (endpoint: mean survival time, dose: 25.0 mg/kg/injection, schedule: Q04DX003 (ip), vehicle: saline sonified) was 103 % of control.
For `C=CCSc1nc(N)nc2nc[nH]c12`, the T/C (endpoint: mean survival time, dose: 100.0 mg/kg/injection, schedule: Q04DX003 (ip), vehicle: saline sonified) is 107 % of control and the T/C (endpoint: mean survival time, dose: 200.0 mg/kg/injection, schedule: Q04DX003 (ip), vehicle: saline sonified) is 96 % of control.
In the case of `CC(=O)c1ccccc1OC(=O)c1ccccc1`, the T/C under setting [1] was 100 % of control; the T/C under setting [2] was 107 % of control; the T/C under setting [3] was 91 % of control; the T/C under setting [4] was 101 % of control; the T/C under setting [5] was 93 % of control; the T/C under setting [6] is 104 % of control.
Turning to `O=C1CCCc2c1[nH]c1ccccc21`, the T/C is, setting by setting: under setting [1], 94 % of control; under setting [3], 104 % of control; under setting [5], 102 % of control.
With `Cc1c(Cl)c(Cl)c(NS(=O)(=O)c2ccccc2)c(NS(=O)(=O)c2ccccc2)c1Cl`, the T/C was 97 % of control (endpoint: mean survival time, dose: 100.0 mg/kg/injection, schedule: Q04DX003 (ip), vehicle: Klucel (hydroxypropylcellulose) (HPC)); 104 % of control (endpoint: mean survival time, dose: 200.0 mg/kg/injection, schedule: Q04DX003 (ip), vehicle: Klucel (hydroxypropylcellulose) (HPC)); 95 % of control (endpoint: mean survival time, dose: 400.0 mg/kg/injection, schedule: Q04DX003 (ip), vehicle: Klucel (hydroxypropylcellulose) (HPC)).
As for `CCCc1cc(=O)n(CCCc2ccccc2)c(=O)n1CCCc1ccccc1`, the T/C was 103 % of control (endpoint: mean survival time, dose: 100.0 mg/kg/injection, schedule: Q01DX001 (ip), vehicle: Klucel (hydroxypropylcellulose) (HPC)); 97 % of control (endpoint: mean survival time, dose: 200.0 mg/kg/injection, schedule: Q01DX001 (ip), vehicle: Klucel (hydroxypropylcellulose) (HPC)); 90 % of control (endpoint: mean survival time, dose: 400.0 mg/kg/injection, schedule: Q01DX001 (ip), vehicle: Klucel (hydroxypropylcellulose) (HPC)).
`C=CC(=C)CCC=C(C)C`: the T/C is 96 % of control under setting [7]; 91 % of control (endpoint: mean survival time, dose: 100.0 mg/kg/injection, schedule: Q01DX009 (ip), vehicle: acetone); 96 % of control (endpoint: mean survival time, dose: 200.0 mg/kg/injection, schedule: Q01DX009 (ip), vehicle: acetone).
For `Cc1cc(Cl)cc([N+](=O)[O-])c1`, the T/C under setting [2] was 92 % of control, the T/C under setting [4] was 88 % of control and the T/C under setting [6] was 87 % of control.
As for `c1ccc2[nH]c(CCCCCCCCc3nc4ccccc4[nH]3)nc2c1`, the T/C reads like this: under setting [1], 102 % of control; under setting [3], 104 % of control.
`CCOc1ccc(C(/C(Cl)=N/O)C(Cl)(Cl)Cl)cc1` (configuration not stated): the T/C runs as follows: (endpoint: mean survival time, dose: 12.5 mg/kg/injection, schedule: Q01DX009 (ip), vehicle: acetone) 94 % of control; (endpoint: mean survival time, dose: 25.0 mg/kg/injection, schedule: Q01DX009 (ip), vehicle: acetone) 103 % of control; under setting [7], 108 % of control.
Consider `CC(C)OC(=S)S`, for which the T/C runs as follows: (endpoint: mean survival time, dose: 100.0 mg/kg/injection, schedule: Q01DX009 (ip), vehicle: saline) 101 % of control; (endpoint: mean survival time, dose: 100.0 mg/kg/injection, schedule: Q04DX003 (ip), vehicle: saline) 100 % of control; (endpoint: mean survival time, dose: 200.0 mg/kg/injection, schedule: Q01DX009 (ip), vehicle: saline) 102 % of control; (endpoint: mean survival time, dose: 200.0 mg/kg/injection, schedule: Q04DX003 (ip), vehicle: saline) 97 % of control; (endpoint: mean survival time, dose: 400.0 mg/kg/injection, schedule: Q01DX009 (ip), vehicle: saline) 107 % of control; (endpoint: mean survival time, dose: 400.0 mg/kg/injection, schedule: Q04DX003 (ip), vehicle: saline) 88 % of control.
Consider `CC1CC(C)SC(C)S1` (configuration not stated), for which the T/C was 102 % of control (endpoint: mean survival time, dose: 50.0 mg/kg/injection, schedule: Q04DX002 (ip), vehicle: saline with Tween-80); 105 % of control under setting [8]; 97 % of control under setting [9].
On to `CNC(=O)Nc1ccccc1OS(=O)(=O)N(C)C`, for which the T/C was 97 % of control under setting [2], 104 % of control under setting [4] and 104 % of control under setting [6].
For the molecule `CC12CCCCC1SC(F)(F)C2(F)F` (configuration not stated), the T/C is 111 % of control (endpoint: mean survival time, dose: 12.5 mg/kg/injection, schedule: Q04DX003 (ip), vehicle: saline with Tween-80); 88 % of control (endpoint: mean survival time, dose: 25.0 mg/kg/injection, schedule: Q04DX003 (ip), vehicle: saline with Tween-80); 103 % of control (endpoint: mean survival time, dose: 50.0 mg/kg/injection, schedule: Q04DX003 (ip), vehicle: saline with Tween-80).
For `COc1cc(C)n2nnnc2n1`, the T/C (endpoint: mean survival time, dose: 100.0 mg/kg/injection, schedule: Q01DX001 (ip), vehicle: saline) was 107 % of control.
For the molecule `O=C(CNC(=O)Nc1cccc([N+](=O)[O-])c1)N/N=C/c1ccc(F)cc1`, the T/C is, setting by setting: (endpoint: mean survival time, dose: 50.0 mg/kg/injection, schedule: Q01DX009 (ip), vehicle: saline with Tween-80) 89 % of control; under setting [1], 93 % of control; under setting [3], 101 % of control.
For `CCCCCCCC1C(=O)OC2CC3C(C)=CC(=O)C(O)C3(C)C3C4(O)OCC23C1C(C)C4O` (configuration not stated), the T/C is, setting by setting: (endpoint: median survival time, dose: 2.5 mg/kg/injection, schedule: Q01DX005 (ip), vehicle: Klucel (hydroxypropylcellulose) (HPC)) 109 % of control; (endpoint: median survival time, dose: 5.0 mg/kg/injection, schedule: Q01DX005 (ip), vehicle: Klucel (hydroxypropylcellulose) (HPC)) 106 % of control; (endpoint: median survival time, dose: 10.0 mg/kg/injection, schedule: Q01DX005 (ip), vehicle: Klucel (hydroxypropylcellulose) (HPC)) 102 % of control; (endpoint: median survival time, dose: 20.0 mg/kg/injection, schedule: Q01DX005 (ip), vehicle: Klucel (hydroxypropylcellulose) (HPC)) 108 % of control.
With `COc1cccc2c1C(=O)c1c(O)c3c(c(O)c1C2=O)C[C@@](O)(C(=O)CO)C[C@@H]3OC1CC(N)CC(C)O1` (some centres not stated), the T/C runs as follows: (endpoint: median survival time, dose: 0.75 mg/kg/injection, schedule: Q01DX009 (ip), vehicle: water) 154 % of control; (endpoint: median survival time, dose: 1.5 mg/kg/injection, schedule: Q01DX009 (ip), vehicle: water) 200 % of control; (endpoint: median survival time, dose: 3.0 mg/kg/injection, schedule: Q01DX009 (ip), vehicle: water) 108 % of control.
Consider `CC1=C2CCCCC2(C)CCC1=O` (configuration not stated), for which the T/C under setting [8] is 120 % of control; the T/C under setting [9] is 108 % of control; the T/C (endpoint: mean survival time, dose: 400.0 mg/kg/injection, schedule: Q04DX002 (ip), vehicle: saline with Tween-80) is 100 % of control.
On to `CC1OC(Sc2ncnc3nc[nH]c23)C(O)C(O)C1O` (configuration not stated), for which the T/C (endpoint: median survival time, dose: 12.5 mg/kg/injection, schedule: Q01DX005 (ip), vehicle: saline with Tween-80) was 105 % of control; the T/C (endpoint: median survival time, dose: 25.0 mg/kg/injection, schedule: Q01DX005 (ip), vehicle: saline with Tween-80) was 107 % of control; the T/C (endpoint: median survival time, dose: 50.0 mg/kg/injection, schedule: Q01DX005 (ip), vehicle: saline with Tween-80) was 103 % of control and 109 % of control; the T/C (endpoint: median survival time, dose: 100.0 mg/kg/injection, schedule: Q01DX005 (ip), vehicle: saline with Tween-80) was 122 % of control; the T/C (endpoint: median survival time, dose: 200.0 mg/kg/injection, schedule: Q01DX005 (ip), vehicle: saline with Tween-80) is 150 % of control and 151 % of control; the T/C (endpoint: median survival time, dose: 400.0 mg/kg/injection, schedule: Q01DX005 (ip), vehicle: saline with Tween-80) is 170 % of control.
Regarding `O=C1c2ccccc2C(=O)c2c(Cl)cc(Cl)cc21`, the T/C was 103 % of control (endpoint: mean survival time, dose: 75.0 mg/kg/injection, schedule: Q01DX001 (ip), vehicle: saline); 111 % of control (endpoint: mean survival time, dose: 150.0 mg/kg/injection, schedule: Q01DX001 (ip), vehicle: saline); 102 % of control (endpoint: mean survival time, dose: 300.0 mg/kg/injection, schedule: Q01DX001 (ip), vehicle: saline).

The values above are taken from PubChem BioAssay AID256 (DTP/NCI, 2004).
